Assay results from US20220324898A1, “PROSTATE SPECIFIC MEMBRANE ANTIGEN (PSMA) LIGANDS COMPRISING AN AMYLASE CLEAVABLE LINKER” (Deutsches Krebsforschungszentrum, priority 2019, published 2022).
One block for each compound: values may come before it.

How the values were obtained:
[1] = Organ distribution of 177Lu-labeled PSMA ligands in LNCaP tumor-bearing mice; format: in vivo, BALB/c nu/nu mice; settings: 60 pmol via tail vein, mean, n=3; for Organ distribution: Tumor: LNCaP tumor
Protocol: 5×10^6 LNCaP cells were subcutaneously inoculated into the right flank of male 6-week-old BALB/c nu/nu mice (Charles River Laboratories). Tumors were grown for ˜3 weeks, to ˜200 mm^3. 60 pmoles of ^177Lu labelled PSMA-ligands were dissolved in 100 μL 0.9% NaCl and injected per mouse. The solution was injected via the tail vein, followed by sacrifice at various time points. Organs of interest (blood, heart, lung, spleen, liver, kidney, muscle, small intestine, brain, tumor, and femur) were dissected, blotted dry, and weighed. The radioactivity was measured using a gamma counter and calculated as % ID/g, and corrected for ^177Lu decay.
The results are given in the following tables (mean+standard deviation; per time point n=3 animals) (see also FIG. 4): […]

LNCaP cells = assay: Internalization and cell surface binding of 177Lu-labeled PSMA ligands; format: cell-based; settings: 30 nM 177Lu-labeled ligand, 45 min, 37° C., blocking with 2-PMPA
Protocol: 10^5 LNCaP cells were seeded in poly-L-lysine coated 24-well cell culture plates. 24 h later, wells were washed and the cells incubated with a 30 nM solution of ^177Lu radiolabeled PSMA-ligand (PSMA-617 or PSMA-MT) in 250 μL medium, for 45 min at 37° C. In the blocking experiments, incubation was performed in the presence of excess of 2-PMPA to assess competition for PSMA. Following incubation, PSMA-ligand containing medium was removed by washing 3 times with 1 mL of ice-cold PBS. Cells were subsequently incubated twice with 0.5 mL glycine-HCl in PBS (50 mM, pH=2.8) for 5 min to extract the cell membrane associated fraction. The cells were then washed with 1 mL of ice-cold PBS, and lysed with 0.5 mL 0.3 M NaOH. The membrane bound and lysed (internalized) fractions were assessed for radioactivity levels using a gamma counter (Packard Cobra II, GMI, Minn., USA). Cell uptake was calculated as percent of the initially added radioactivity detected in 10^5 cells [% IA/10^5 cells].

prostate cancer = settings: cited from earlier work
PSMA = molecular target: T1, PSMA (Homo sapiens, UniProt Q04609); assay: Competitive cell binding against 68Ga-labeled PSMA-10 radioligand; settings: non-labeled compound vs 0.8 nM 68Ga-PSMA-10; first preliminary experiments; read-out: IC50 (50% inhibitory concentration), competitive cell binding
T1 construct: endogenous in cells
Protocol: For the determination of competitive cell binding the cells (10^5 per well) were incubated with a 0.8 nM solution of ^68Ga-labeled radioligand [Glu-urea-Lys(Ahx)]2-HBED-CC (PSMA-10, precursor ordered from ABX, Radeberg, Germany) in the presence of 12 different concentrations of analyte (non-labeled compounds, 0-5000 nM, 100 μL/well). After incubation, the mixture was removed and the wells were washed 3 times with PBS using a multiscreen vacuum manifold (Millipore, Billerica, Mass.). Cell-bound radioactivity was measured using a gamma counter (Packard Cobra II, GMI, Minn., USA). The 50% inhibitory concentration (IC50) values were calculated by fitting the data using a nonlinear regression algorithm (GraphPad Software).

α-Amylase = molecular target: T2, α-Amylase (Homo sapiens, UniProt P0DUB6); assay: α-Amylase digestion of PSMA-MT, analysed by RP-HPLC and MALDI-TOF; format: in vitro ADME
T2 sequence (P0DUB6 16-511): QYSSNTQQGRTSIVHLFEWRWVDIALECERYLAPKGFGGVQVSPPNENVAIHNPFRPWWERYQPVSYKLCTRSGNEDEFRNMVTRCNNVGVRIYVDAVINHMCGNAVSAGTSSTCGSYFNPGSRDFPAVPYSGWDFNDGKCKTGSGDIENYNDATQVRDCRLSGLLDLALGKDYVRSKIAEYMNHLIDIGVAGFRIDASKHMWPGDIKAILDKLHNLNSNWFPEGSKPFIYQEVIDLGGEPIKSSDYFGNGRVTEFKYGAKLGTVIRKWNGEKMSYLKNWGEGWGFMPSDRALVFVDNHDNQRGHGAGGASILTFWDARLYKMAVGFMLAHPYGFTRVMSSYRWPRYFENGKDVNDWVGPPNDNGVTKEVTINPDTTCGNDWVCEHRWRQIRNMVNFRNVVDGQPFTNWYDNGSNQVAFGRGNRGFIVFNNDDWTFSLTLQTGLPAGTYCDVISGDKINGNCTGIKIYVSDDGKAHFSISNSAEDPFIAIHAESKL
Protocol: 10 μl of a solution of PSMA-MT in ultrapure water with a concentration of 1 mM were analyzed by analytic RP-HPLC and MALDI-TOF before the digestion. For digestion 10 μl of α-Amylase (1 U/μl in H2O ) were added to 10 μl of a solution of PSMA-MT in ultrapure water with a concentration of 1 mM and incubated at RT for 1 h. The solution was afterwards analyzed with analytic RP-HPLC and MALDI-TOF to evaluate the reaction.
To investigate the exact digest position of PSMA-MT the different fragments found in the MALDI-TOF after the digest were compared. Two main peaks occurred at 902 g/mol and at 989 g/mol. […] Fragments corresponding to cleavage at cleavage site B could not be detected in the MALDI-TOF.

[2] = molecular target: T3, α-amylase (isolated from the human salivary gland) (Homo sapiens, UniProt P0DUB6); assay: Cleavability of the linker by α-amylase, monitored by analytical HPLC; format: in vitro ADME; settings: in vitro, after 177Lu labeling according to example 1A, analytical HPLC at different times
T3 construct: incubated with α-amylase (isolated from the human salivary gland, Sigma-Aldrich); purchased Sigma-Aldrich; host or cells: human salivary gland (natural source)
T3 sequence (P0DUB6 16-511): T2 sequence (P0DUB6 16-511)
Protocol: FIG. 1. The time-dependent cleavability of the compound PSMA-MT by α-amylase is shown. ^177Lu-PSMA-MT was incubated with an α-amylase (isolated from the human salivary gland) and enzymatic cleavage was monitored at different times by analytical HPLC.
The radiolabelled compound was incubated with α-amylase (isolated from the human salivary gland, Sigma-Aldrich) according to instructions of the manufacturer and enzymatic cleavage was monitored at different times by analytical HPLC (see FIG. 1).

T1 sequence (Q04609 whole entry): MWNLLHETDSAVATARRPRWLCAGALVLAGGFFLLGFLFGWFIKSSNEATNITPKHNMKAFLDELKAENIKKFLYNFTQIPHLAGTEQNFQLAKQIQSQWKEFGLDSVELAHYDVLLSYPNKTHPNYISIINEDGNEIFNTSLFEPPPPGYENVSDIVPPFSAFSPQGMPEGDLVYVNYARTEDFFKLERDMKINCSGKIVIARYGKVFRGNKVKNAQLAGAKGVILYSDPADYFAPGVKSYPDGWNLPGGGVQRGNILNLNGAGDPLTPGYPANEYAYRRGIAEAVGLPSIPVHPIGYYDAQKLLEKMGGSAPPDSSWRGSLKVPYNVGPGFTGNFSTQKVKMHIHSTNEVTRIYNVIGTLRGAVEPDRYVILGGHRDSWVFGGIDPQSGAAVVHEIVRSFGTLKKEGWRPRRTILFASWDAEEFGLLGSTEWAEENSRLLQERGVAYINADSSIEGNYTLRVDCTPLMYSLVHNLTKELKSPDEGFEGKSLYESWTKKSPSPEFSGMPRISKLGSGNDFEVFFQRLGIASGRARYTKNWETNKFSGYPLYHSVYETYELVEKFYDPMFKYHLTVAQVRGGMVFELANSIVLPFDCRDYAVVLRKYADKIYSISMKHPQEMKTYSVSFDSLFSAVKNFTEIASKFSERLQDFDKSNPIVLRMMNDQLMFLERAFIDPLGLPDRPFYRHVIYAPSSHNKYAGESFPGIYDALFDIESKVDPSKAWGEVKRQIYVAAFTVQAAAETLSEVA

SMILES: O=C([O-])CN1CCN(CC(=O)[O-])CCN(CC(=O)NCC2CCC(C(=O)N[C@@H](Cc3ccc4ccccc4c3)C(=O)NCCCC[C@H](NC(=O)N[C@@H](CCC(=O)O)C(=O)O)C(=O)O)CC2)CCN(CC(=O)[O-])CC1.[177Lu+3] (some centres unmarked) [177Lu-PSMA-617, reference compound]
Organ distribution: Blood ([1]; 1 h): 0.31 % ID/g
Organ distribution: Brain ([1]; 1 h): 0.02 % ID/g
Organ distribution: Heart ([1]; 1 h): 0.17 % ID/g
Organ distribution: Kidney (first Kidney column) ([1]; 1 h): 143.55 % ID/g
Organ distribution: Kidney (second Kidney column) ([1]; 1 h): 146.77 % ID/g
Organ distribution: Liver ([1]; 1 h): 4.73 % ID/g
Organ distribution: Lung ([1]; 1 h): 0.61 % ID/g
Organ distribution: Muscle ([1]; 1 h): 0.07 % ID/g
Organ distribution: Small Intestine ([1]; 1 h): 0.18 % ID/g
Organ distribution: Spleen ([1]; 1 h): 5.86 % ID/g
Organ distribution: Tail ([1]; 1 h): 3.46 % ID/g
Organ distribution: Tumor ([1]; 1 h): 19.20 % ID/g
Organ distribution: Blood ([1]; 4 h): 0.03 % ID/g
Organ distribution: Brain ([1]; 4 h): 0.01 % ID/g
Organ distribution: Heart ([1]; 4 h): 0.03 % ID/g
Organ distribution: Kidney (first Kidney column) ([1]; 4 h): 5.52 % ID/g
Organ distribution: Kidney (second Kidney column) ([1]; 4 h): 5.50 % ID/g
Organ distribution: Liver ([1]; 4 h): 1.57 % ID/g
Organ distribution: Lung ([1]; 4 h): 0.08 % ID/g
Organ distribution: Muscle ([1]; 4 h): 0.01 % ID/g
Organ distribution: Small Intestine ([1]; 4 h): 0.04 % ID/g
Organ distribution: Spleen ([1]; 4 h): 1.20 % ID/g
Organ distribution: Tail ([1]; 4 h): 0.78 % ID/g
Organ distribution: Tumor ([1]; 4 h): 14.77 % ID/g
Specifically cell surface bound (cell uptake), mean (LNCaP cells): 4,09228993 % IA/10^5 cells
Specifically internalized (cell uptake), mean (LNCaP cells): 2,63598315 % IA/10^5 cells

SMILES: O=C([O-])CN1CCN(CC(=O)[O-])CCN(CC(=O)N2CCN(c3cccc(C4OCC5OC(OC6C(CO)OC(OC7C(CO)OC(Oc8ccc(CCC(=O)NCC9CCC(C(=O)NC(Cc%10ccc%11ccccc%11c%10)C(=O)NCCCCC(NC(=O)NC(CCC(=O)O)C(=O)O)C(=O)O)CC9)cc8)C(O)C7O)C(O)C6O)C(O)C(O)C5O4)c3)CC2)CCN(CC(=O)[O-])CC1.[177Lu+3] (centres unmarked) [177Lu-PSMA-MT]
Organ distribution: Blood ([1]; 1 h): 0.35 % ID/g
Organ distribution: Brain ([1]; 1 h): 0.02 % ID/g
Organ distribution: Heart ([1]; 1 h): 0.16 % ID/g
Organ distribution: Kidney (first Kidney column) ([1]; 1 h): 144.27 % ID/g
Organ distribution: Kidney (second Kidney column) ([1]; 1 h): 142.04 % ID/g
Organ distribution: Liver ([1]; 1 h): 2.07 % ID/g
Organ distribution: Lung ([1]; 1 h): 0.56 % ID/g
Organ distribution: Muscle ([1]; 1 h): 0.08 % ID/g
Organ distribution: Small Intestine ([1]; 1 h): 0.15 % ID/g
Organ distribution: Spleen ([1]; 1 h): 3.83 % ID/g
Organ distribution: Tail ([1]; 1 h): 4.61 % ID/g
Organ distribution: Tumor ([1]; 1 h): 12.83 % ID/g
Organ distribution: Blood ([1]; 4 h): 0.04 % ID/g
Organ distribution: Brain ([1]; 4 h): 0.01 % ID/g
Organ distribution: Heart ([1]; 4 h): 0.04 % ID/g
Organ distribution: Kidney (first Kidney column) ([1]; 4 h): 20.59 % ID/g
Organ distribution: Kidney (second Kidney column) ([1]; 4 h): 19.45 % ID/g
Organ distribution: Liver ([1]; 4 h): 4.58 % ID/g
Organ distribution: Lung ([1]; 4 h): 0.10 % ID/g
Organ distribution: Muscle ([1]; 4 h): 0.02 % ID/g
Organ distribution: Small Intestine ([1]; 4 h): 0.04 % ID/g
Organ distribution: Spleen ([1]; 4 h): 3.94 % ID/g
Organ distribution: Tail ([1]; 4 h): 0.50 % ID/g
Organ distribution: Tumor ([1]; 4 h): 9.18 % ID/g
Specifically cell surface bound (cell uptake), mean (LNCaP cells): 4,86794251 % IA/10^5 cells
Specifically internalized (cell uptake), mean (LNCaP cells): 2,14459836 % IA/10^5 cells

SMILES: O=C([O-])CC[C@H](NC(=O)N[C@@H](CCCCNC(=O)[C@H](Cc1ccc2ccccc2c1)NC(=O)C1CCC(CNC(=O)CN2CCN(CC(=O)[O-])CCN(CC(=O)[O-])CCN(CC(=O)[O-])CC2)CC1)C(=O)[O-])C(=O)[O-].[225Ac].[H+].[H+].[H+] (some centres unmarked) [225Ac-PSMA-617]
PSA value (prostate cancer; both patients): below the detectability limit
Clinical response (prostate cancer; two patients with extremely advanced and end-stage disease): complete remission

IC50 (PSMA): ~20 nM
SMILES: O=C(O)CCC(NC(=O)NC(CCCCNC(=O)C(Cc1ccc2ccccc2c1)NC(=O)C1CCC(CNC(=O)CN2CCN(CC(=O)O)CCN(CC(=O)O)CCN(CC(=O)O)CC2)CC1)C(=O)O)C(=O)O (centres unmarked) [PSMA-617, 2-[3-(1-Carboxy-5-{3-naphthalen-2-yl-2-[(4-{[2-(4,7,10-tris-carboxymethyl-1,4,7,10-tetraaza-cyclododec-1-yl)-acetylamino]-methyl}-cyclohexanecarbonyl) -amino]-propionylamino}-pentyl)-ureido]-pentanedioic acid, reference compound]

Turnover of PSMA-MT on digestion with α-Amylase (original mass peak disappeared) (α-Amylase; 1 h at RT, 1 U/μl α-Amylase, 1 mM PSMA-MT, MALDI-TOF): complete turnover
Alpha-amylase cleavage site whose predicted fragments were found (α-Amylase; MALDI-TOF after digest, fragments for cleavage site B could not be detected): cleavage site A
Basic cleavability of the linker by α-amylases [2]: demonstrated
IC50 (PSMA): ~39 nM
SMILES: O=C(O)CCC(NC(=O)NC(CCCCNC(=O)C(Cc1ccc2ccccc2c1)NC(=O)C1CCC(CNC(=O)CCc2ccc(OC3OC(CO)C(OC4OC(CO)C(OC5OC6COC(c7cccc(N8CCN(C(=O)CN9CCN(CC(=O)O)CCN(CC(=O)O)CCN(CC(=O)O)CC9)CC8)c7)OC6C(O)C5O)C(O)C4O)C(O)C3O)cc2)CC1)C(=O)O)C(=O)O (centres unmarked) [PSMA-MT, 1-(4-(3-oxo-3-PSMA-propyl)phenyl)-4″,6″-(3-(4-DOTA-piperazine)benzylidene)maltotriose]
